Our source for the EC50 and activation values is patent US12583861B2, “Derivatives of imidazo[4,5-d]pyridazine, their preparation and their therapeutic application” (SANOFI, priority 2021, dated 2026).

For one experiment, the target named is T1, human TLR8 (Homo sapiens, UniProt Q9NR97).
T1 construct: host or cells: HEK293 (HEK-Blue hTLR8)
T1 sequence (Q9NR97 27-1041): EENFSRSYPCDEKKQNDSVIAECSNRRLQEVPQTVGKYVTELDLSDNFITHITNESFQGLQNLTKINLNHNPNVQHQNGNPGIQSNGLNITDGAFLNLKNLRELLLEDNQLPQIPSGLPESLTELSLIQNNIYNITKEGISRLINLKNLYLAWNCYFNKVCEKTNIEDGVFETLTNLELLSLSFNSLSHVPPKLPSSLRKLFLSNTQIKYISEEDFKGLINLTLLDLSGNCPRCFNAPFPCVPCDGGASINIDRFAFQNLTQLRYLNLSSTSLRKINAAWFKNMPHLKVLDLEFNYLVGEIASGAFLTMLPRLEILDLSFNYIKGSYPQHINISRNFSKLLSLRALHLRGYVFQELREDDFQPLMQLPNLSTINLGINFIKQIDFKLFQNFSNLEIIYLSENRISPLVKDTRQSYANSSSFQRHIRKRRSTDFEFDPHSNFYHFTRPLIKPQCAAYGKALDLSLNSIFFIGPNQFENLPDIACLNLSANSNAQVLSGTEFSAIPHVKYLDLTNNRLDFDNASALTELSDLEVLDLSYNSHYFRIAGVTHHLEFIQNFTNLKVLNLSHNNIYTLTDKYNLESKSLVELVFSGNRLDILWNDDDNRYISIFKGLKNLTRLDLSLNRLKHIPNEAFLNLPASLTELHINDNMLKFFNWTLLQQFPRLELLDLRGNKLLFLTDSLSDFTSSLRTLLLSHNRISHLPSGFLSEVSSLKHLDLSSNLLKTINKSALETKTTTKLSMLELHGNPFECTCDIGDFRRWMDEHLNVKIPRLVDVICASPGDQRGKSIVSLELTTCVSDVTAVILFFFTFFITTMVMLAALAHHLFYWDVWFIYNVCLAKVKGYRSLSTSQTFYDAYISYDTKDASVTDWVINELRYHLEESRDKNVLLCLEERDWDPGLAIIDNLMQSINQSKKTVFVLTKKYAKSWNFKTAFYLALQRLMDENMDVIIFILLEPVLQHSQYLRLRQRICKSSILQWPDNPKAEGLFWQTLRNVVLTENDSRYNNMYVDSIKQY
Description: HEK-Blue hTLR8 reporter cell assay (SEAP, NF-kB/AP-1) for stimulation of human TLR8. The class given is cell-based. The following applies: HEK-Blue hTLR8 cells; for EC50: 24 h incubation, SEAP readout, read-out: TLR8_EC50; for activation at 20 µM: 24 h, at 20000 nM. Put shortly: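 Stimulation is quantified as secreted alkaline phosphatase in supernatant using QUANTI-Blue™ substrate. Reporter HEK293 line co-transfected with hTLR8 and SEAP under an IFN-β minimal promoter with five NF-κB/AP-1 sites; 3.10E4 cells/well, 18 to 24 h pre-culture at 37° C. before compounds.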

Another experiment addresses T2, human TLR7 (Homo sapiens, UniProt Q9NYK1).
T2 construct: host or cells: HEK293 (HEK-Blue hTLR7)
T2 sequence (Q9NYK1 27-1049): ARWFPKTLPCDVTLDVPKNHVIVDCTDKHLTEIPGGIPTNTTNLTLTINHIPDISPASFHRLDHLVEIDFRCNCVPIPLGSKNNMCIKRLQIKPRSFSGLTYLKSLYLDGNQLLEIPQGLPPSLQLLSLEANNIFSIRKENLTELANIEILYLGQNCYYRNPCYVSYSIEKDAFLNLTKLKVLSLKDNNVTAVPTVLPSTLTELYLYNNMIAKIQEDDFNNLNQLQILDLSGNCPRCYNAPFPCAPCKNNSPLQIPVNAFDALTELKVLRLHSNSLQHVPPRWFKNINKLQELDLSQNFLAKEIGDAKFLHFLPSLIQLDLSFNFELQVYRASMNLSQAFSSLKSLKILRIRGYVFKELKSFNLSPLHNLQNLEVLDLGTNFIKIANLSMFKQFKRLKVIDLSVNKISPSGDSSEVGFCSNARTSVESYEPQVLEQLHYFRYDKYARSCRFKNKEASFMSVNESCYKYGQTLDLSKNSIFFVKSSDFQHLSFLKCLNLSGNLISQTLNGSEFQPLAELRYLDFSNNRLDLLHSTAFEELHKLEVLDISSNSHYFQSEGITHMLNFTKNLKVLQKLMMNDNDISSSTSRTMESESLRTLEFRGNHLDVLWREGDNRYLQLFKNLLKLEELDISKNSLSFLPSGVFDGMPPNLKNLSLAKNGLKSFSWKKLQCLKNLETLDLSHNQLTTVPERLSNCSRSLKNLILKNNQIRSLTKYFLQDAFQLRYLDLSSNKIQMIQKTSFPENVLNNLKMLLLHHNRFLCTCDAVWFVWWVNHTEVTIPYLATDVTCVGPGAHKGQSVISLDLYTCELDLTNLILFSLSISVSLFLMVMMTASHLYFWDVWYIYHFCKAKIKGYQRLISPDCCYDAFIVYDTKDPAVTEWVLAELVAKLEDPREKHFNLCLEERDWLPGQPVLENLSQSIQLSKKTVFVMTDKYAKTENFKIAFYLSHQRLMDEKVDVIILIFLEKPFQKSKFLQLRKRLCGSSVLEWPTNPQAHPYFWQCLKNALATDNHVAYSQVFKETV
Description: HEK-Blue hTLR7 reporter cell assay (SEAP, NF-kB/AP-1) for stimulation of human TLR7. Type of experiment: cell-based. The following applies: HEK-Blue hTLR7 cells; for EC50: read-out: TLR7_EC50; for activation at 20 µM: 24 h, at 20000 nM. In outline: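 Activity expressed as EC50 for half-maximal SEAP induction. Compounds, serially diluted 3-fold from 20 to 0.01 μM, were incubated 24 h at 37 °C, 5% CO2 with HEK-Blue hTLR7 reporter cells (3.10E4/well, plated 18–24 h earlier); supernatant developed with QUANTI-Blue.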

Where a name gives a salt, the structure may show the parent alone. Read-outs that look alike come from different tables or passages of the source.

As to `CCCCc1nc2c(N)nnc(N3CCCC3)c2n1C[C@H]1CC[C@H](CN)CC1` [Compound 142, 1-(((1R,4R)-4-(aminomethyl)cyclohexyl)methyl)-2-butyl-7-(pyrrolidin-1-yl)-1H-imidazo[4,5-d]pyridazin-4-amine], the EC50 is greater than 20 µM on human TLR8 and 2.64 µM at human TLR7 (24 h incubation, SEAP readout).

`CCCCc1nc2c(N)nnc(N3CCCC3)c2n1C[C@H]1CC[C@H](N)CC1` [Compound 143, 3-[(4-aminocyclohexyl)methyl]-2-butyl-4-pyrrolidin-1-yl-imidazo[4,5-d]pyridazin-7-amine]: the EC50 at human TLR8 was greater than 20 µM; on human TLR7 (24 h incubation, SEAP readout) it was 11 µM.

Take `CCCCc1nc2c(N)nnc(C3=CCNC3)c2n1Cc1ccc(CN)cc1` [Compound 144, 1-[[4-(aminomethyl)phenyl]methyl]-2-butyl-7-(2,5-dihydro-1H-pyrrol-3-yl)imidazo[4,5-d]pyridazin-4-amine]: the activation at 20 µM on human TLR8 is 14.7%. Besides, on human TLR7 (μM), the EC50 was greater than 20 µM.

As for `CCCCc1nc2c(N)nnc(C3CCNC3)c2n1Cc1ccc(CN)cc1` (stereo not shown) [Compound 145, 1-[[4-(aminomethyl)phenyl]methyl]-2-butyl-7-pyrrolidin-3-yl-imidazo[4,5-d]pyridazin-4-amine], the values for the activation at 20 µM on human TLR8 and on human TLR7 were 11.7% and 2.2%, respectively.

For `CCCCc1nc2c(N)nnc(OC(C)C)c2n1CCCCCCN` [Compound 146, 3-(6-aminohexyl)-2-butyl-4-isopropoxy-imidazo[4,5-d]pyridazin-7-amine dihydrochloride salt], the EC50 on human TLR8 is greater than 20 µM; on human TLR7 (24 h incubation, SEAP readout), 0.191 µM.

Consider `CCCCc1nc2c(N)nnc(OC(C)C)c2n1CCCCCCNC1CCOCC1` [Compound 147, 2-butyl-4-isopropoxy-3-[6-(tetrahydropyran-4-ylamino)hexyl]imidazo[4,5-d]pyridazin-7-amine; dihydrochloride], for which the EC50 on human TLR8 came to 7.72 µM; at human TLR7 (24 h incubation, SEAP readout), 0.0204 µM.

Turning to `CCCCc1nc2c(N)nnc(OC(C)C)c2n1CCCCCCN(C(C)=O)C1CCOCC1` [Compound 148, N-[6-(7-amino-2-butyl-4-isopropoxy-imidazo[4,5-d]pyridazin-3-yl)hexyl]-N-tetrahydropyran-4-yl-acetamide], the EC50 on human TLR8 is greater than 20 µM; at human TLR7 (24 h incubation, SEAP readout), 0.0346 µM.

Consider `CCCCc1nc2c(N)nnc(OC(C)C)c2n1CCCCN` [Compound 149, 3-(4-aminobutyl)-2-butyl-4-isopropoxy-imidazo[4,5-d]pyridazin-7-amine dihydrochloride salt], for which the EC50 on human TLR8 was greater than 20 µM; on human TLR7 (24 h incubation, SEAP readout) it was 12.6 µM.

As for `CCCCc1nc2c(N)nnc(OC(C)C)c2n1CCCCNC1CCOCC1` [Compound 150, 2-butyl-4-isopropoxy-3-[4-(tetrahydropyran-4-ylamino)butyl]imidazo[4,5-d]pyridazin-7-amine hydrochloride salt], the EC50 at human TLR8 worked out at 11.4 µM; at human TLR7 (24 h incubation, SEAP readout), 2.21 µM.

In the case of `CCCCc1nc2c(N)nnc(OC(C)C)c2n1CCCCN(C(C)=O)C1CCOCC1` [Compound 151, N-[4-(7-amino-2-butyl-4-isopropoxy-imidazo[4,5-d]pyridazin-3-yl)butyl]-N-tetrahydropyran-4-yl-acetamide], the EC50 at human TLR8 was greater than 20 µM; on human TLR7 (24 h incubation, SEAP readout) it was 11.2 µM.

For `CCCCc1nc2c(N)nnc(OC(C)C)c2n1CCCCNC1CS(=O)(=O)C1` [Compound 152, 2-butyl-3-[4-[(1,1-dioxothietan-3-yl)amino]butyl]-4-isopropoxy-imidazo[4,5-d]pyridazin-7-amine], the EC50 at human TLR8 is greater than 20 µM; at human TLR7 (24 h incubation, SEAP readout) it was 4.39 µM.

In the case of `CCCCc1nc2c(N)nnc(OC(C)C)c2n1CCCCN(C(C)=O)C1CS(=O)(=O)C1` [Compound 153, N-[4-(7-amino-2-butyl-4-isopropoxy-imidazo[4,5-d]pyridazin-3-yl)butyl]-N-(1,1-dioxothietan-3-yl)acetamide], the EC50 was greater than 20 µM on human TLR8 and 18.4 µM on human TLR7 (24 h incubation, SEAP readout).

Consider `CCCCc1nc2c(N)nnc(OC(C)C)c2n1CCCCCCN(C(C)=O)C1CS(=O)(=O)C1` [Compound 155, N-[6-(7-amino-2-butyl-4-isopropoxy-imidazo[4,5-d]pyridazin-3-yl)hexyl]-N-(1,1-dioxothietan-3-yl)acetamide hydrochloride salt], for which the EC50 on human TLR8 is greater than 20 µM; at human TLR7 (24 h incubation, SEAP readout) it was 0.596 µM.

Regarding `CCCCc1nc2c(N)nnc(OC(C)C)c2n1CC(C)(CO)CO` [Compound 156, 2-[(7-amino-2-butyl-4-isopropoxy-imidazo[4,5-d]pyridazin-3-yl)methyl]-2-methyl-propane-1,3-diol; hydrochloride], the EC50 at human TLR8 came to 0.005 µM; on human TLR7 (24 h incubation, SEAP readout) it was 0.075 µM.

For the compound `CCCCc1nc2c(N)nnc(OC(C)C)c2n1CC(CO)CO` [Compound 157, 2-[(7-amino-2-butyl-4-isopropoxy-imidazo[4,5-d]pyridazin-3-yl)methyl]propane-1,3-diol; hydrochloride], the EC50 is 0.007 µM at human TLR8 and 0.531 µM at human TLR7 (24 h incubation, SEAP readout).

As for `CCCc1nc2c(N)nnc(OC(C)C)c2n1Cc1ccc(CN)cc1` [Compound 158, 1-(4-(aminomethyl)benzyl)-7-isopropoxy-2-propyl-1H-imidazo[4,5-d]pyridazin-4-amine], the EC50 at human TLR8 is greater than 20 µM; at human TLR7 (24 h incubation, SEAP readout) it was 0.717 µM.

In the case of `CCOCc1nc2c(N)nnc(OC(C)C)c2n1Cc1ccc(CN)cc1` [Compound 159, 1-(4-(aminomethyl)benzyl)-2-(ethoxymethyl)-7-isopropoxy-1H-imidazo[4,5-d]pyridazin-4-amine], the EC50 on human TLR8 is greater than 20 µM; on human TLR7 (24 h incubation, SEAP readout), 0.247 µM.

For the compound `Cc1nc2c(N)nnc(OC(C)C)c2n1Cc1ccc(CN)cc1` [Compound 160, 1-(4-(aminomethyl)benzyl)-7-isopropoxy-2-methyl-1H-imidazo[4,5-d]pyridazin-4-amine], the activation at 20 µM at human TLR8 came out at 18%; at human TLR7, 35%.

Turning to `CCCSc1nc2c(N)nnc(OC(C)C)c2n1Cc1ccc(CN)cc1` [Compound 161, 3-[[4-(aminomethyl)phenyl]methyl]-4-isopropoxy-2-propylsulfanyl-imidazo[4,5-d]pyridazin-7-amine], the EC50 on human TLR8 was found to be 0.398 µM; at human TLR7 (24 h incubation, SEAP readout) it was 0.205 µM.

With `CCC[S+]([O-])c1nc2c(N)nnc(OC(C)C)c2n1Cc1ccc(CN)cc1` (stereo not shown) [Compound 162, 3-[[4-(aminomethyl)phenyl]methyl]-4-isopropoxy-2-propylsulfinyl-imidazo[4,5-d]pyridazin-7-amine], the EC50 at human TLR8 is greater than 20 µM; at human TLR7 (24 h incubation, SEAP readout) it was 6.7 µM.
